For one data set, the target named is T1, GFRα3/RET (Homo sapiens, UniProt O60609+P07949).
T1 construct: Full-length human GFRα3 cDNA (Wang et al., 2006); expressed in transfected cells; host or cells: MG87RET murine fibroblasts transiently transfected with GFRα3
Nature of the data set: RET phosphorylation by BT compounds, IP and Western blotting (FIG. 6B). Format: cell-based. The conditions noted are these: 100 μM, 15 min; MG87 RET fibroblasts transfected with GFRα3. The method, then:
(§1) MG87RET cells were plated on 35 mm tissue culture dishes the day before the experiment. Cells were transfected with GFRα1, GFRα3 or with an vector encoding for GFP. On the day of the experiment cells were starved for 4 hours in serum-free DMEM and stimulated with the investigated compounds (structures shown in the description of FIG. 6, above) at 100 μM concentration or with 100 ng/ml of GDNF or ARTN (positive control) for 15 min. Then cells were washed once with ice-cold PBS containing 1 mM Na3VO4 and lysed on ice in 1 ml per well of RIPA-modified buffer (50 mM Tris-HCl, pH 7.4, 150 mM NaCl, 1 mM EDTA, 1% NP-40, 1% TX-100, 10% glycerol, EDTA-free protease inhibitor cocktail (Roche), 1 mM Na3VO4, 2.5 mg/ml of sodium deoxycholate, 1 mM PMSF. Ret was immunoprecipitated by anti-RET C-20 antibodies (Santa-Cruz Biotechnology, Inc.). Precipitated proteins were resolved on 7.5% SDS-PAGE and then transferred onto a nitrocellulose membrane. Membrane was blocked for 15 min at room temperature by 10% nonfat dry milk in TBS-T and probed with anti-phosphotyrosine antibodies (clone 4G10, Upstate Biotechnology) diluted 1:1000 in TBS-T containing 3% nonfat dry milk for 2 hours at room temperature. The membranes were washed 3 times for 5 min in TBS-T and incubated in the 1:3000 solution of secondary anti-mouse antibodies conjugated with HRP (DAKO) diluted in TBS-T containing 3% nonfat dry milk for 45 min at room temperature. Membranes were washed with TBS-T for 5×10 min. Stained bands were visualized with ECL reagent (Pierce) using LAS3000 imaging program. To confirm equal loading of the proteins, membranes were probed with anti-RET C-20 antibodies (1:500, Santa-Cruz Biotechnology, inc.) after stripping. We used secondary anti-goat antibodies conjugated with HRP (1:1500, DAKO) to detect C-20.
For orientation: A western blot detects proteins with antibodies after separation by electrophoresis.

The target in another data set is T2, GFRα1/RET (Homo sapiens, UniProt P07949+P56159).
T2 construct: Full-length human GFRα1 cDNA (Sidorova et al., unpublished) subcloned in pcDNA6; expressed in transfected cells; host or cells: MG87RET murine fibroblasts transiently transfected with GFRα1
T2 sequence (P56159 25-429 limits assumed, species assumed): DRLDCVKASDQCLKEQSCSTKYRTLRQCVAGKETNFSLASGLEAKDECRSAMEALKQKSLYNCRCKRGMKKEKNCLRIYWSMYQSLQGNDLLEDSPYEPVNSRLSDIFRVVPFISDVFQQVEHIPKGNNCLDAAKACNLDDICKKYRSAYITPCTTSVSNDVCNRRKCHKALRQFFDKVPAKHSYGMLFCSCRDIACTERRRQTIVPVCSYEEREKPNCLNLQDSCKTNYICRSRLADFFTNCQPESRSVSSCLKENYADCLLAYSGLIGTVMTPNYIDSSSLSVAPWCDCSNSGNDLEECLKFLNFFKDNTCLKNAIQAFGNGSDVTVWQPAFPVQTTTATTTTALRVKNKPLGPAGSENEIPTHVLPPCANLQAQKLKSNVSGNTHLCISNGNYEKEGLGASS
T2 sequence (P07949 29-1114, species assumed): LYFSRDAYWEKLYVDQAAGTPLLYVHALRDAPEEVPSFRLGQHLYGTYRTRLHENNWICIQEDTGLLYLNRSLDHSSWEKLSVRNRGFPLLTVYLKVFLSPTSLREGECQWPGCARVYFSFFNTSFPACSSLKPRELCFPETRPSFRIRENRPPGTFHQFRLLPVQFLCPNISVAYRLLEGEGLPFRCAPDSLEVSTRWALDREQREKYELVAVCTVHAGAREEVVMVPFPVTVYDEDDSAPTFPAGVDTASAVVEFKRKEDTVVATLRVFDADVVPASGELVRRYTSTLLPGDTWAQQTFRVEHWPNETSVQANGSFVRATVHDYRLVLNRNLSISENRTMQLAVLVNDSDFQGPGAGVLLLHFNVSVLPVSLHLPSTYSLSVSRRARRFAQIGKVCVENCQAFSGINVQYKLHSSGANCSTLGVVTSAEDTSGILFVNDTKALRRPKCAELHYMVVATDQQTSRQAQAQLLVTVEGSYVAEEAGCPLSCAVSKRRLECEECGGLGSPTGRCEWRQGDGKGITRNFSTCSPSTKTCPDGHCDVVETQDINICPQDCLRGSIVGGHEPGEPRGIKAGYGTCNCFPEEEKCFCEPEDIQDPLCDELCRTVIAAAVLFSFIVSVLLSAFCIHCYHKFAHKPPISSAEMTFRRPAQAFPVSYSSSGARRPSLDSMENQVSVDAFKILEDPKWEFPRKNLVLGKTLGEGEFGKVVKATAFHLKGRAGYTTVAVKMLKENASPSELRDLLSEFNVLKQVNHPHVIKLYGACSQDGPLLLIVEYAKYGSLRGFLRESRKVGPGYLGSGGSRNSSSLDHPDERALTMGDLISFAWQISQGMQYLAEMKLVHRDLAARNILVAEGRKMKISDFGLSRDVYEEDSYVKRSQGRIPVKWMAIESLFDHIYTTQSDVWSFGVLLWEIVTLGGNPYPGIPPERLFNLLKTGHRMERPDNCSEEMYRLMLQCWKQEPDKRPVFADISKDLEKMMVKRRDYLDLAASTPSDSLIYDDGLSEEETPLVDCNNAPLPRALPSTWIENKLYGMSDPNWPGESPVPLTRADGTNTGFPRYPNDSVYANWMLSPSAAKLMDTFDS
The experiment in a line: RET phosphorylation by BT compounds, IP and Western blotting (FIG. 6A). The conditions noted are these: 100 μM, 15 min; MG87 RET fibroblasts transfected with GFRα1. Format: cell-based. The method, then:
as §1

The test system of another data set is 6-OHDA-treated rats. Nature of the data set: Side effects / toxic effects after intrastriatal injection in 6-OHDA-treated rats. Format: in vivo. As to conditions: injected intrastriatally. The procedure: GDNF mimetics compounds, GDNF or vehicle is administered to the striatum at 3 weeks after the exposure to the neurotoxin 6-OHDA. The selective damage to dopaminergic neurons in the SNc, as well as striatal levels of dopamine and its metabolites are evaluated 12 weeks after the injection of 6-OHDA with tyrosine hydroxylase (TH) immunohistochemistry and HPLC, respectively. In addition, the behavioral impairment of rats is evaluated by forelimb asymmetry test (cylinder test), amphetamine induced rotation asymmetry test and Y-maze test for stereotypic spontaneous rotation deficits.
On day 21, rats are re-anesthetized with 5% isoflurane (in 70% N2O and 30% O2; flow 300 ml/min) and placed in a stereotactic frame. During the operation concentration of anesthetic is reduced to 1-1.5%. The rectal temperature is maintained at 37.0±1.0° C. with a homeothermic blanket system. The right brain hemisphere is exposed through a small craniectomy to the skull. A stereotaxic injection of the test compound, GDNF or vehicle is made into the right striatum. Each dosing solution is infused at a speed of 1 μl/min and is equally distributed between 4 sites at the following coordinates: AP+1.0, ML+2.8, DV−6.0, −5.5, −5.0 and −4.4 mm. The cannula is left in place for another 5 min before being withdrawn. The hole in the skull is subsequently filled with repair material and the skin is closed and disinfected. The rats are allowed to recover from anesthesia and are carefully monitored for possible post surgical complications. The animals are returned to the home cages with ad libitum access to food and water.
Animals are monitored daily by laboratory personnel. […] Definitions of acceptable endpoints include: no spontaneous movements and inability to drink or eat in 24-h observation period, massive bleeding, spontaneous inflammation, missing anatomy, swelling or tumors larger than 20 mm, and inability to right itself in 30 sec period.

The subject of data set [1] is RET-expressing reporter cell line (RET alone). Nature of the data set: Reporter-gene luciferase activity assay, dose-response (FIG. 5). Format: cell-based. The conditions noted are these: cells expressing RET alone; 1-50 μM, 24 h. The method, then: Generation of stable cell lines. MG87RET murine fibroblast were plated on […] dishes and transfected with 4 μg of G4-Luc, Gal4-Elk (Baloh et al., 2000) and GFRα1 expressing plasmid (“αLUC” cells) or empty vector (“NOα” cells) containing neomycin-resistance gene in ratio 4:1:1 using Lipofectamine 2000 (Invitrogen) for DNA delivery as described by manufacturer. The following day, cells were trypsinized and plated in low density on 10-cm tissue culture dishes. Stable transformants were selected in the presence of 500-750 μg/ml geneticin (Invitrogen). Established cell lines were maintained in DMEM, 10% fetal bovine serum (FBS), 100 μg/ml Normocin (Invivogene), 2 μg/ml of puromycin, 500 μg/ml of geneticin, 15 mM HEPES, pH 7.2. Pathdetect Elk-1 system and human GFRα1-expressing plasmid (“Strat-Luc” cells) or empty vector (control cell line “NOStratis”) cells were selected and maintained in the DMEM, 10% FBS, 100 μg/ml Normocin (Invivogene), 2 μg/ml of puromycin, 500 μg/ml of G418, 2 μg/ml of blasticidin S, 15 mM HEPES, pH 7.2.
Cells were plated on 96-well plates (or 384-well) in cell density 20 000 (or 5 000 for 384-well format) cells per well in DMEM, 10% FBS, 100 μg/ml Normocin, 2 μg/ml puromycin, 500 μg/ml of G418, 15 mM HEPES, pH 7.2 one day before assay. The following day, the compounds were added to a final concentration of 1-50 μM. Structures of the compounds are shown in the description of FIG. 5, above. Cells were allowed to produce luciferase for 24 h, then lysed in 20 μl of 1×Cell culture lysis reagent (Promega) and freeze-thawed once to ensure complete lysis. Then 5 μl of the lysate was mixed (on ice) with 20 μl of luciferase assay substrate (Promega) in a well of black Isoplate (PerkinElmer). Luminescence was counted on MicroBeta 2 counter (PerkinElmer) twice. Data are presented as fold induction, where the corresponding concentration of DMSO was used as a reference.

Structures are written as SMILES.

T1 sequence (O60609 32-374 limits assumed): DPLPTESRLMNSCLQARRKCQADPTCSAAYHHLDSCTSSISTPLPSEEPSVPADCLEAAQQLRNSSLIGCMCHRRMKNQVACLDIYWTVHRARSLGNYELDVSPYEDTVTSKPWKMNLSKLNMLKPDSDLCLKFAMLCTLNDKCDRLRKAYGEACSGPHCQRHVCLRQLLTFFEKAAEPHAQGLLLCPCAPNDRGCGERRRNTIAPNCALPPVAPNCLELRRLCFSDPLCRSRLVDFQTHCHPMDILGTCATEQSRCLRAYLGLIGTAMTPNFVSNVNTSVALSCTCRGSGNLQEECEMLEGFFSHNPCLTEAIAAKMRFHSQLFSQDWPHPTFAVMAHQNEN
T1 sequence (P07949 29-1114): as the sequence (P07949 29-1114, species assumed) above

Regarding `CCN(CC)S(=O)(=O)c1ccc(OC)c(N2CCN(C(=O)c3cc(F)ccc3C(F)(F)F)CC2)c1` [BT13], the “RET phosphorylation via GFRα3” value on GFRα3/RET was “strongly activated RET”. Moreover, the “RET phosphorylation via GFRα1” value on GFRα1/RET is “strongly activated RET”. In the data set with 6-OHDA-treated rats, the “toxic effects in behavioral assays” value is listed as “did not cause toxic effects”. Besides, the “induction of luciferase expression” value in data set [1] is “No significant effect”.

Consider `COc1ccc(S(=O)(=O)N2CCc3ccccc3C2)cc1N1CCN(C(=O)c2cc(F)ccc2C(F)(F)F)CC1` [BT16], for which the “RET phosphorylation via GFRα3” value at GFRα3/RET was “likely the weaker GFRα3/RET agonists”. In addition, the “RET phosphorylation via GFRα1” value on GFRα1/RET was “strongly activated RET”. For the same molecule, in the data set on 6-OHDA-treated rats, the “toxic effects in behavioral assays” value is listed as “did not cause toxic effects”. Besides, the “induction of luciferase expression” value in data set [1] is on record as “No significant effect”.

In the case of `COc1cc2c(cc1OC)CN(S(=O)(=O)c1ccc(OC)c(N3CCN(C(=O)c4cc(F)ccc4C(F)(F)F)CC3)c1)CC2` [BT18], the “RET phosphorylation via GFRα3” value at GFRα3/RET was “likely the weaker GFRα3/RET agonists”. Moreover, the “RET phosphorylation via GFRα1” value at GFRα1/RET is “likely the weaker GFRα1/RET agonists”. Also, the “toxic effects in behavioral assays” value in the data set with 6-OHDA-treated rats is recorded as “did not cause toxic effects”.
